Measurements from publication PMC5308240, “A Novel Toxin from Haplopelma lividum Selectively Inhibits the NaV1.8 Channel and Possesses Potent Analgesic Efficacy” (Toxins, 2016).
Where “and” joins values, the source holds several entries; their conditions need not be identical. Identical values can stand only once.

Experiments:
mice [1] = experiment: Tail-flicking test; conditions: mouse, in vivo, ip
Protocol: Mice with pain threshold of 4–6 s were selected for the tail-flicking test. […] A photothermal pain detector (YLS-12A, Jinan, Shandong, China) was used to measure the pain threshold of mice subjected to intense heat and the light beam of the detector was focused on the middle of mouse tail. All of the animals were intraperitoneally injected with saline containing different concentrations of samples and control group received the same volume of saline. Tail withdrawal latency was measured as the time taken to withdraw the tail from the light beam.
(§1) The results are expressed as the mean ± standard error of the mean (SEM). Statistical significance was calculated using one- or two-way analysis of variance followed by the Student-Newman-Keuls and Bonferroni’s post hoc tests. Significance was defined as p < 0.05.

mice [2] = experiment: Hot plate test; conditions: mouse, in vivo
Protocol: A hot plate apparatus (model HZ66-ZH-YLS-6B, Shanghai, China), maintained at 55 ± 1 °C, was used to test the pain in response to a thermal stimulus. Mice in the control condition showing initial nociceptive responses between 5 and 10 s were selected for the experiment. The latency to the sign of hind paw licking or jumping to avoid heat nociception was taken as the index of the nociceptive threshold. […] A group of mice treated with morphine dissolved in physiological saline was used as a positive control.
as §1

mice [3] = experiment: Formalin-induced paw licking; conditions: mouse, in vivo, ip
Protocol: A formalin test was performed according to the method described by Owoyele et al.. Mice were intraperitoneally (i.p.) injected with test samples dissolved in 100 μL of saline and positive control animals were intraperitoneally injected with morphine dissolved in saline. The control group received the same volume of saline. Animals were injected with 20 μL of 5% formalin at the plantar surface of right hind paw after intraperitoneally injected with test samples. They were then placed into open polyvinyl cages (20 cm × 40 cm × 15 cm) individually. The time spent for licking the injected paw by each mouse was recorded by a digital video camera (early phase or neurogenic pain, 0–15 min post-injection and late phase or inflammatory pain, 15–30 min post-injection).
as §1

## CN1CC[C@]23c4c5ccc(O)c4O[C@H]2[C@@H](O)C=C[C@H]3[C@H]1C5 [morphine]
Mice [1]
  tail withdrawal latency: 6.8 s and 8.9 s and 11.3 s
Mice [2]
  hot plate latency: 12.5 s and 14.3 s and 18.6 s
Mice [3]
  paw licking time, early phase: 94 s and 71 s and 60 s
  paw licking time, late phase: 421 s and 275 s and 211 s
